System: MV4;11
Experiment: Cell growth assay, MV4;11 AML cell line
Format: cell-based, human
Conditions: Homo sapiens, MV4-11, 240 h; day 10; cells passaged, fresh compound added on days 3 and 7; read-out: MV 4;11 GI50 day 10
Procedure: (§1) For all other cell lines, compounds were serially diluted in medium and dispensed in triplicate in 96-well plates (0.1% DMSO final for assay) followed by the addition of exponentially growing cells at densities ranging from 5,000 to 30,000 cells/well. Cells were also seeded into 2 additional control wells containing vehicle (0.1% DMSO). […] To determine the estimated cell number in each well, cells that were counted in the control well were diluted 3-fold for an 8-point dilution series, and transferred to 384-well plates in duplicate, 20 μL per well. Cells in all other wells were diluted 4-fold and transferred to 384-well plates in duplicate, 20 μL per well. 20 μL of CellTiter-Glo (Promega) was subsequently added to all wells and luminescence was detected using a SPECTRAmax M3. The control well dilution series was fit to a linear regression and used as a standard for calculating the estimated cell number for each well. For days 7 and 10, total estimated cell number represents the split-adjusted theoretical cell number.

SMILES | GI50 [nM]
C[C@]12CC=C3C=C4CC[C@@H](N5CCOCC5)C[C@]45CCC3(O5)[C@@H]1CC[C@@H]2c1ccc2ccncc2c1 [15A, α-morpholine] | 2.5
C[C@]12CC=C3C=C4CC[C@H](N5CCOCC5)C[C@]45CCC3(O5)[C@@H]1CC[C@@H]2c1ccc2ccncc2c1 [15B, β-morpholine] | 12
CN1CCN([C@H]2CCC3=CC4=CC[C@]5(C)[C@@H](c6ccc7ccncc7c6)CC[C@H]5C45CC[C@]3(C2)O5)CC1 [16B, β-N-methylpiperazine] | 8
C[C@]12CC=C3C=C4CC[C@H](N5CCC5)C[C@]45CCC3(O5)[C@@H]1CC[C@@H]2c1ccc2ccncc2c1 [18B, β-azetidine] | 13
C[C@]12CC=C3C=C4CC[C@@H](N5CCCC5)C[C@]45CC[C@]3(O5)[C@@H]1CC[C@@H]2c1ccc2ccncc2c1 [19A, α-pyrrolidine] | 1.5

Further lines, results first:

GI50 [nM] | SMILES
35 | CN(C)[C@H]1CCC2=CC3=CC[C@]4(C)C(c5ccc6ccncc6c5)=CC[C@H]4[C@@]34CC[C@]2(C1)O4 [23B, β-dimethylamine 17,18-unsaturated isoquinoline]
1 | CN[C@@H]1CCC2=CC3=CC[C@]4(C)C(c5ccc6ccncc6c5)CC[C@H]4C34CC[C@]2(C1)O4 (stereo partly drawn) [24A, α-monomethylamine]

Same assay, conditions: Homo sapiens, MV4-11; day 7; fresh compound added on day 3; read-out: MV4;11 GI50 day 7

GI50 [nM] | SMILES
15 | CN1CCN([C@H]2CCC3=CC4=CC[C@]5(C)[C@@H](c6ccc7ccncc7c6)CC[C@H]5C45CC[C@]3(C2)O5)CC1 [16B, β-N-methylpiperazine]
20 | C[C@]12CC=C3C=C4CC[C@H](N5CCC5)C[C@]45CCC3(O5)[C@@H]1CC[C@@H]2c1ccc2ccncc2c1 [18B, β-azetidine]

System: MOLM-14
Experiment: Cell growth assay, MOLM-14 AML cell line
Format: cell-based, human
Conditions: Homo sapiens, MOLM-14, 240 h; day 10; cells passaged, fresh compound added on days 3 and 7; read-out: MOL M14 G150 day 10
Procedure: as §1

SMILES | GI50 [nM]
C[C@]12CC=C3C=C4CC[C@@H](N5CCOCC5)C[C@]45CCC3(O5)[C@@H]1CC[C@@H]2c1ccc2ccncc2c1 [15A, α-morpholine] | 20
C[C@]12CC=C3C=C4CC[C@H](N5CCOCC5)C[C@]45CCC3(O5)[C@@H]1CC[C@@H]2c1ccc2ccncc2c1 [15B, β-morpholine] | 12.5
CN1CCN([C@H]2CCC3=CC4=CC[C@]5(C)[C@@H](c6ccc7ccncc7c6)CC[C@H]5C45CC[C@]3(C2)O5)CC1 [16B, β-N-methylpiperazine] | 9
C[C@]12CC=C3C=C4CC[C@H](N5CCC5)C[C@]45CCC3(O5)[C@@H]1CC[C@@H]2c1ccc2ccncc2c1 [18B, β-azetidine] | 13
C[C@]12CC=C3C=C4CC[C@@H](N5CCCC5)C[C@]45CC[C@]3(O5)[C@@H]1CC[C@@H]2c1ccc2ccncc2c1 [19A, α-pyrrolidine] | 5

Other lines, results leading:

GI50 [nM] | SMILES
55 | CN(C)[C@H]1CCC2=CC3=CC[C@]4(C)C(c5ccc6ccncc6c5)=CC[C@H]4[C@@]34CC[C@]2(C1)O4 [23B, β-dimethylamine 17,18-unsaturated isoquinoline]
18 | CN[C@@H]1CCC2=CC3=CC[C@]4(C)C(c5ccc6ccncc6c5)CC[C@H]4C34CC[C@]2(C1)O4 (stereo partly drawn) [24A, α-monomethylamine]

Same assay, conditions: Homo sapiens, MOLM-14; day 7; fresh compound added on day 3; read-out: MOL M14 GI50 day 7

GI50 [nM] | SMILES
17 | CN1CCN([C@H]2CCC3=CC4=CC[C@]5(C)[C@@H](c6ccc7ccncc7c6)CC[C@H]5C45CC[C@]3(C2)O5)CC1 [16B, β-N-methylpiperazine]
25 | C[C@]12CC=C3C=C4CC[C@H](N5CCC5)C[C@]45CCC3(O5)[C@@H]1CC[C@@H]2c1ccc2ccncc2c1 [18B, β-azetidine]

System: SET-2
Experiment: Cell growth assay, SET-2 cell line
Format: cell-based
Conditions: Homo sapiens, SET-2, 240 h; read-out: SET-2 GI50 day 10
Procedure: (§2) For all other cell lines, compounds were serially diluted in medium and dispensed in triplicate in 96-well plates (0.1% DMSO final for assay) followed by the addition of exponentially growing cells at densities ranging from 5,000 to 30,000 cells/well. Cells were also seeded into 2 additional control wells containing vehicle (0.1% DMSO). After 3 days, the number of viable cells in one of the control wells was counted by hemocytometer or MOXI Z (Orflo) and an equal volume of cells for all wells were split-back with fresh vehicle/compounds such that the resulting seeding density for the control well was 5,000-30,000 cells/well, matching the initial seeding density in that well. This procedure was repeated on day 7 and day 10. % growth was calculated as % growth=100×(total estimated cell number in well−day 0 starting cell number)/(total average vehicle estimated cell number−day 0 starting cell number). To determine the estimated cell number in each well, cells that were counted in the control well were diluted 3-fold for an 8-point dilution series, and transferred to 384-well plates in duplicate, 20 μL per well. Cells in all other wells were diluted 4-fold and transferred to 384-well plates in duplicate, 20 μL per well. 20 μL of CellTiter-Glo (Promega) was subsequently added to all wells and luminescence was detected using a SPECTRAmax M3. The control well dilution series was fit to a linear regression and used as a standard for calculating the estimated cell number for each well. For days 7 and 10, total estimated cell number represents the split-adjusted theoretical cell number.

SMILES | GI50 [nM]
C[C@]12CC=C3C=C4CC[C@@H](N5CCOCC5)C[C@]45CCC3(O5)[C@@H]1CC[C@@H]2c1ccc2ccncc2c1 [15A, α-morpholine] | 8
C[C@]12CC=C3C=C4CC[C@@H](N5CCCC5)C[C@]45CC[C@]3(O5)[C@@H]1CC[C@@H]2c1ccc2ccncc2c1 [19A, α-pyrrolidine] | 0.4
CN[C@@H]1CCC2=CC3=CC[C@]4(C)C(c5ccc6ccncc6c5)CC[C@H]4C34CC[C@]2(C1)O4 (stereo partly drawn) [24A, α-monomethylamine] | 0.5

System: K562
Experiment: Cell growth assay, K562 cell line
Format: cell-based, human
Conditions: Homo sapiens, K562, 240 h; day 10; lack of activity is taken as evidence of on-target selectivity
Procedure: as §2

GI50 [nM] | SMILES
> 1000 | C[C@]12CC=C3C=C4CC[C@H](N5CCOCC5)C[C@]45CCC3(O5)[C@@H]1CC[C@@H]2c1ccc2ccncc2c1 [15B, β-morpholine]
> 1000 | CN1CCN([C@H]2CCC3=CC4=CC[C@]5(C)[C@@H](c6ccc7ccncc7c6)CC[C@H]5C45CC[C@]3(C2)O5)CC1 [16B, β-N-methylpiperazine]
> 1000 | C[C@]12CC=C3C=C4CC[C@H](N5CCC5)C[C@]45CCC3(O5)[C@@H]1CC[C@@H]2c1ccc2ccncc2c1 [18B, β-azetidine]
> 1000 | CN(C)[C@H]1CCC2=CC3=CC[C@]4(C)C(c5ccc6ccncc6c5)=CC[C@H]4[C@@]34CC[C@]2(C1)O4 [23B, β-dimethylamine 17,18-unsaturated isoquinoline]
